Test results: ChEMBL document CHEMBL1143740, “Conformationally locked thiosugars as potent alpha-mannosidase inhibitors: synthesis, biochemical and docking studies” (Bioorg Med Chem, 2007)

Experiment: Inhibition of jack bean alpha-mannosidase
Design: species or system Canavalia ensiformis

| SMILES | Ki [nM] |
| --- | --- |
| OC1[C@H](O)C2CSC(O2)[C@H]1O (single isomer, unassigned) [THIOLEVOMANNOSAN] | 1380 |
| O=S1(=O)C[C@@H]2O[C@H]1[C@@H](O)[C@H](O)[C@@H]2O | 350 |
| [O-][S+]1C[C@@H]2O[C@H]1[C@@H](O)[C@H](O)[C@@H]2O (stereo partly drawn) | 385 |
